# Reference: the kinase profiling compilation of Christmann-Franck et al. (2016)
# Assays:
# Assay in all cases: split-luciferase competition binding
# [1] = biological target: PRKCE (human) (UniProt Q02156); conditions: compound 10.0 µM
# [2] = biological target: PRKCQ (human) (UniProt Q04759); conditions: compound 10.0 µM
# [3] = biological target: SGK3 (human) (UniProt Q96BR1); conditions: compound 10.0 µM
# [4] = biological target: PKN1 (human) (UniProt Q16512); conditions: compound 10.0 µM
# [5] = biological target: AURKB (human) (UniProt Q96GD4); conditions: compound 10.0 µM
# Sequence of AURKB (human) (Q96GD4 whole entry, looked up): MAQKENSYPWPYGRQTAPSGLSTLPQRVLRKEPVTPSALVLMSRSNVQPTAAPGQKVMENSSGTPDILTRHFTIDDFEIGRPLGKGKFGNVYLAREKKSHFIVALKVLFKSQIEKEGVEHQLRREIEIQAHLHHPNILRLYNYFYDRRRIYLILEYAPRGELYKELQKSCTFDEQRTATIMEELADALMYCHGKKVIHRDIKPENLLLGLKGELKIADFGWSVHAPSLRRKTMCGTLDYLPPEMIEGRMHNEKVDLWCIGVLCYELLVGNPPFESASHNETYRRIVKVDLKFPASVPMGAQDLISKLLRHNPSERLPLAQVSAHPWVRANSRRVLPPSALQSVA
# [6] = biological target: PRKCI (human) (UniProt P41743); conditions: compound 10.0 µM
# Sequence of PRKCI (human) (P41743 whole entry, looked up): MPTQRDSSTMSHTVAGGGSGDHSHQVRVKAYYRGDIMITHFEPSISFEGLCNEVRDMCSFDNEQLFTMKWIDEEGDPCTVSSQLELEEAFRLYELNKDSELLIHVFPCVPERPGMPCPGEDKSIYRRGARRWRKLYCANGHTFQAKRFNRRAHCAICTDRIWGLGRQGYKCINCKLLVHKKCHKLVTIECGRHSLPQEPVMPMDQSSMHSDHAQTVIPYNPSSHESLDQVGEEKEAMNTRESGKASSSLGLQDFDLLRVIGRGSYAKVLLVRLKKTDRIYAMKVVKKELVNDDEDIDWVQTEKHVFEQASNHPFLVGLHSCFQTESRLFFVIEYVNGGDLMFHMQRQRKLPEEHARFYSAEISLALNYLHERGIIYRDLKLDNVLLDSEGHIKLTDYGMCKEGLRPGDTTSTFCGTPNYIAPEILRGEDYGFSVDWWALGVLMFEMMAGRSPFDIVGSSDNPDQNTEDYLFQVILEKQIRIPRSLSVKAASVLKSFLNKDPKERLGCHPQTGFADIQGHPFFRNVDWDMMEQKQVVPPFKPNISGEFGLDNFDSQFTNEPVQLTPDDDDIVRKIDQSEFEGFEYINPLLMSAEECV
# [7] = biological target: RPS6KA2 KD1 (human) (UniProt Q15349); conditions: compound 10.0 µM
# [8] = biological target: PRKCG (human) (UniProt P05129); conditions: compound 10.0 µM
# [9] = biological target: PRKX (human) (UniProt P51817); conditions: compound 10.0 µM
# [10] = biological target: PRKCH (human) (UniProt P24723); conditions: compound 10.0 µM
# [11] = biological target: RPS6KA4 KD1 (human) (UniProt O75676); conditions: compound 10.0 µM
# [12] = biological target: PDPK1 (human) (UniProt O15530); conditions: compound 10.0 µM
# [13] = biological target: PRKACB (human) (UniProt P22694); conditions: compound 10.0 µM
# [14] = biological target: SGK2 (human) (UniProt Q9HBY8); conditions: compound 10.0 µM
# [15] = biological target: RPS6KA5 KD1 (human) (UniProt O75582); conditions: compound 10.0 µM
# [16] = biological target: AURKA (human) (UniProt O14965); conditions: compound 10.0 µM
# [17] = biological target: DMPK (human) (UniProt Q09013); conditions: compound 10.0 µM
# [18] = biological target: RPS6KA6 KD1 (human) (UniProt Q9UK32); conditions: compound 10.0 µM
# [19] = biological target: STK32B (human) (UniProt Q9NY57); conditions: compound 10.0 µM
# [20] = biological target: RPS6KA3 KD1 (human) (UniProt P51812); conditions: compound 10.0 µM
# Sequence of RPS6KA3 KD1 (human) (P51812 whole entry, looked up): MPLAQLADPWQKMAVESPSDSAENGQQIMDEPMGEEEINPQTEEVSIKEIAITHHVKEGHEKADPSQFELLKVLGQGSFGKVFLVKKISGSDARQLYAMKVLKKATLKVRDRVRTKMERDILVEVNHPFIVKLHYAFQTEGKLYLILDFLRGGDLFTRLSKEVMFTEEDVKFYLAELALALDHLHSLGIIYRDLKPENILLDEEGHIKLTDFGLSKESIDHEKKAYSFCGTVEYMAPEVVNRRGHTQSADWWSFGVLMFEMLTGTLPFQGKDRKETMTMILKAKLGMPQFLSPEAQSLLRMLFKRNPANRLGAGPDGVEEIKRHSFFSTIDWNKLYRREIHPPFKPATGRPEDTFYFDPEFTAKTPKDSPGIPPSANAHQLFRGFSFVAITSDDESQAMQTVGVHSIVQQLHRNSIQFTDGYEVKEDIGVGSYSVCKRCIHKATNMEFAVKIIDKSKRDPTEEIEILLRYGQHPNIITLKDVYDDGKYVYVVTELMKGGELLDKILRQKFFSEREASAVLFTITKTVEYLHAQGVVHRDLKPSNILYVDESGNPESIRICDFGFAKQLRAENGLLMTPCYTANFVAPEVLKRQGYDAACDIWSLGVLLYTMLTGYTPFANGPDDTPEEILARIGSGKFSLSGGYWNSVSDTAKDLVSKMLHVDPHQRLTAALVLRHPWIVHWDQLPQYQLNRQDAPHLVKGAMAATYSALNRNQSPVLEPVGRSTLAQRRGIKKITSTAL
# [21] = biological target: PRKCD (human) (UniProt Q05655); conditions: compound 10.0 µM
# [22] = biological target: AKT2 (human) (UniProt P31751); conditions: compound 10.0 µM
# Sequence of AKT2 (human) (P31751 whole entry, looked up): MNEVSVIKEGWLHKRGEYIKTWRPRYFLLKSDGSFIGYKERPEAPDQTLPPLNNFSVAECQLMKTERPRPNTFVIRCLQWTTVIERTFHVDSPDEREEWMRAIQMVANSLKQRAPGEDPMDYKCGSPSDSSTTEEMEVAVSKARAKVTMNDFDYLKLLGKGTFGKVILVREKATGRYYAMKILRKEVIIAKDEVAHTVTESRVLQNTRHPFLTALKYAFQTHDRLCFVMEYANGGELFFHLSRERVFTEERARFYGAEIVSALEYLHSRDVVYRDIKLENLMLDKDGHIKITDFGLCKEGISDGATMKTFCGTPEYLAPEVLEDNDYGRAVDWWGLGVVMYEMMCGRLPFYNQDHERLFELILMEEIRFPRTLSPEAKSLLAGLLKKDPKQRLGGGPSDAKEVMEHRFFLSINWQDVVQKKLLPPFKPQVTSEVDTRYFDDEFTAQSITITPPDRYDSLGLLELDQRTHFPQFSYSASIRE
# [23] = biological target: RPS6KA1 KD1 (human) (UniProt Q15418); conditions: compound 10.0 µM
# [24] = biological target: AKT3 (human) (UniProt Q9Y243); conditions: compound 10.0 µM
# [25] = biological target: AURKC (human) (UniProt Q9UQB9); conditions: compound 10.0 µM
# [26] = tested on: PRKACA (mouse); conditions: compound 10.0 µM; accession and sequence are those of the human protein
# [27] = biological target: AKT1 (human) (UniProt P31749); conditions: compound 10.0 µM
# Sequence of AKT1 (human) (P31749 whole entry, looked up): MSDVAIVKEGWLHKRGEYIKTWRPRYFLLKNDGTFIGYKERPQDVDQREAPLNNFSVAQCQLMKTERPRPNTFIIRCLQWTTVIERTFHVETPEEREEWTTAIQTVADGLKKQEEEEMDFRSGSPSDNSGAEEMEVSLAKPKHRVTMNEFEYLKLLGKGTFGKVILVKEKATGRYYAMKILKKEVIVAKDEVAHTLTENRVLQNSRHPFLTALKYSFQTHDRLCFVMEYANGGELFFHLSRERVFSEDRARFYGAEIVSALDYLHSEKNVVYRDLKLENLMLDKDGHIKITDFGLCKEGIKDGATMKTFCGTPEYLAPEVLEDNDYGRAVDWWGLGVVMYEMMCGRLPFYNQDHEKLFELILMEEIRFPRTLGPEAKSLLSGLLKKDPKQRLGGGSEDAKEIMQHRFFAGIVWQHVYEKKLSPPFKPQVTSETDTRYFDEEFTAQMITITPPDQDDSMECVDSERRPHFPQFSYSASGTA
# Sequence of PKN1 (human) (Q16512 whole entry, looked up): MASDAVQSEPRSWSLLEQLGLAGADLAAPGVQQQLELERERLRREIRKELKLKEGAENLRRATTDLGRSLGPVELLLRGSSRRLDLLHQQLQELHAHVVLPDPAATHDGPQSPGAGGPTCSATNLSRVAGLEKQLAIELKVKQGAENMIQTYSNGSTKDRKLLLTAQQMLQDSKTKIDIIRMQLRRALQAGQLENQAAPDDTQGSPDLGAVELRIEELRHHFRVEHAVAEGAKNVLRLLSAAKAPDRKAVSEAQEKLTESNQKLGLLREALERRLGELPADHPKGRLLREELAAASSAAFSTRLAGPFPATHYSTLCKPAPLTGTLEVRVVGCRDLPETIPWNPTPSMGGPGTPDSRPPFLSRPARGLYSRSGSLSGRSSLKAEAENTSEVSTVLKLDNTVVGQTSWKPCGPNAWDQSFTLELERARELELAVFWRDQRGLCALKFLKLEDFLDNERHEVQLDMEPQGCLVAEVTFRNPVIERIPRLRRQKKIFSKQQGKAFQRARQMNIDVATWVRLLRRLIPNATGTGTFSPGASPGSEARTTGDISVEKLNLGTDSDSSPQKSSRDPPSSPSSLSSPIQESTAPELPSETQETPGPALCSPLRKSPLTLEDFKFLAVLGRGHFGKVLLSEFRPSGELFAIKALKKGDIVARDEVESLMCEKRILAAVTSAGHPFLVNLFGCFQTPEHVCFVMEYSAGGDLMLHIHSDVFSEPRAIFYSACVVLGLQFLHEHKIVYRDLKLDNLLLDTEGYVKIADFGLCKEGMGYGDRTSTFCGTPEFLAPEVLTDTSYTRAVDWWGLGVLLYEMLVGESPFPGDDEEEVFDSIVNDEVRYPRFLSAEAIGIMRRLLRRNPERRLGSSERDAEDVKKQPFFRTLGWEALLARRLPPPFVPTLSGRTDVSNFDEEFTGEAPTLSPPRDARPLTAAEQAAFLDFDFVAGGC
# Sequence of PRKCQ (human) (Q04759 whole entry, looked up): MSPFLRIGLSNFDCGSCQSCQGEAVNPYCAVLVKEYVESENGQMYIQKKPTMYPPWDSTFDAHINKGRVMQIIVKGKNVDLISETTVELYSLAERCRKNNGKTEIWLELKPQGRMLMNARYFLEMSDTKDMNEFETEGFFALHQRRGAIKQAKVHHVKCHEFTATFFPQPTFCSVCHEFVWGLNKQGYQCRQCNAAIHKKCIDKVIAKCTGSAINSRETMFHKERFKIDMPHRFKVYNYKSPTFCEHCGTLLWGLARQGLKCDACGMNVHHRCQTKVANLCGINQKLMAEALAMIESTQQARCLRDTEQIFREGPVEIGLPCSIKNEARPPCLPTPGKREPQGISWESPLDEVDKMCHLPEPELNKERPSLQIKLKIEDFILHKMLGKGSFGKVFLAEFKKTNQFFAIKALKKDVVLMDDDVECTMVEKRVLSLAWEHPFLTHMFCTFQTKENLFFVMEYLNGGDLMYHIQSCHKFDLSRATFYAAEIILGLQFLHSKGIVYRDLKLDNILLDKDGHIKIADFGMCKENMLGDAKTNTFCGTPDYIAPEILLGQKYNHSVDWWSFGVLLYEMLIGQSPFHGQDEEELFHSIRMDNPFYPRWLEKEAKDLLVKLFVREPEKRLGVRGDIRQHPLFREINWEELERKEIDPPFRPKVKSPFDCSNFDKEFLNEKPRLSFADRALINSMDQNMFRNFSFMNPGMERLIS
SMILES,inhibition [1],inhibition [2],inhibition [3],inhibition [4],inhibition [5],inhibition [6],inhibition [7],inhibition [8],inhibition [9],inhibition [10],inhibition [11],inhibition [12],inhibition [13],inhibition [14],inhibition [15],inhibition [16],inhibition [17],inhibition [18],inhibition [19],inhibition [20],also measured
COc1cc2nccc(Oc3ccc(NC(=O)Nc4ccc(F)cc4F)c(F)c3)c2cc1OC,0%,20%,12%,10%,71%,0%,32%,3%,12%,0%,23%,0%,5%,17%,43%,41%,13%,21%,0%,12%,inhibition [21]: 0%; inhibition [22]: 0%; inhibition [23]: 0%; inhibition [24]: 0%; inhibition [25]: 80%; inhibition [26]: 16%; inhibition [27]: 6%
CN1CCC(Nc2ncc3ncnc(Nc4ccc(F)c(Cl)c4)c3n2)CC1,0%,0%,0%,3%,8%,0%,4%,0%,6%,0%,0%,0%,0%,0%,0%,0%,3%,0%,0%,0%,inhibition [21]: 0%; inhibition [22]: 0%; inhibition [23]: 0%; inhibition [24]: 0%; inhibition [25]: 10%; inhibition [26]: 6%; inhibition [27]: 0%
O=S(=O)(c1cccc2c(Cl)cccc12)N1CCCNCC1,0%,0%,0%,1%,13%,1%,1%,0%,25%,0%,0%,0%,0%,0%,0%,0%,0%,0%,0%,0%,inhibition [21]: 0%; inhibition [22]: 0%; inhibition [23]: 0%; inhibition [24]: 0%; inhibition [25]: 0%; inhibition [26]: 3%; inhibition [27]: 2%
